Test results as given in ChEMBL document CHEMBL5058564, “EUbOPEN Chemogenomics Library 2 (Incucyte)” (2022).

Experiments:
Format in all cases: toxicity, cell-based
HEK-293T = assay: Incucyte cell viability with HEK293T; conditions: human, 10 µM, compound concentration 10 uM
Fibroblast = assay: Incucyte cell viability with human fibroblast; conditions: 10 µM, compound concentration 10 uM
U2OS = assay: Incucyte cell viability with U2OS; conditions: human, 10 µM, compound concentration 10 uM
[1] = 0 h, replicate number 1, timepoint 0 hours
[2] = 0 h, replicate number 2, timepoint 0 hours
[3] = 12 h, replicate number 1, timepoint 12 hours
[4] = 18 h, replicate number 1, timepoint 18 hours
[5] = 18 h, replicate number 2, timepoint 18 hours
[6] = 24 h, replicate number 1, timepoint 24 hours
[7] = 24 h, replicate number 2, timepoint 24 hours
[8] = 6 h, replicate number 1, timepoint 6 hours
[9] = 12 h, replicate number 2, timepoint 12 hours
[10] = 6 h, replicate number 2, timepoint 6 hours
Note: unitless GR value; below 1 slowed growth and below 0 cell loss.

SMILES	Growth Rate (HEK-293T; [3])	Growth Rate (HEK-293T; [4])	Growth Rate (HEK-293T; [5])	Growth Rate (HEK-293T; [6])	Growth Rate (HEK-293T; [7])	Growth Rate (Fibroblast; [1])	Growth Rate (Fibroblast; [2])	Growth Rate (Fibroblast; [8])	Growth Rate (Fibroblast; [3])	Growth Rate (Fibroblast; [9])	Growth Rate (Fibroblast; [4])	Growth Rate (Fibroblast; [5])	Growth Rate (Fibroblast; [7])	Growth Rate (HEK-293T; [8])	Growth Rate (HEK-293T; [9])	Growth Rate (Fibroblast; [10])	Growth Rate (Fibroblast; [6])	Growth Rate (U2OS; [10])	Growth Rate (U2OS; [9])	Growth Rate (U2OS; [5])	also measured
Cc1ccccc1-c1cc(N2CCN(C)CC2)ncc1N(C)C(=O)C(C)(C)c1cc(C(F)(F)F)cc(C(F)(F)F)c1 [NETUPITANT]	0.84	0.72	0.92	0.5	0.86	-0.23	0.68	0.24	0.63	0.31	0.73	0.71	0.71	–	–	–	–	–	–	–	Growth Rate (HEK-293T; [1]): 0.83; Growth Rate (HEK-293T; [2]): 0.7; Growth Rate (U2OS; [1]): -0.52
COC(=O)Nc1nc2ccc(C(=O)c3cccs3)cc2[nH]1 [NOCODAZOLE]	-0.24	-0.22	-0.34	-0.22	-0.26	–	–	-0.86	-0.6	-0.2	-0.54	-0.04	0.08	-0.46	-0.32	-0.39	-0.33	0.24	-0.16	-0.36	Growth Rate (HEK-293T; [10]): -0.49; Growth Rate (U2OS; [8]): 0.3; Growth Rate (U2OS; [3]): 0.1; Growth Rate (U2OS; [4]): 0.03; Growth Rate (U2OS; [6]): -0.06; Growth Rate (U2OS; [7]): -0.35
CCCCCCCC/C=C\CCCCCCCC(N)=O [OLEAMIDE]	0.8	0.89	0.94	0.96	1	0.63	0.02	–	–	–	–	–	–	0.79	0.99	0.82	–	1	0.79	0.89	Growth Rate (HEK-293T; [1]): 0.61; Growth Rate (HEK-293T; [2]): 0.35; Growth Rate (U2OS; [1]): 0.24; Growth Rate (U2OS; [2]): 0.51; Growth Rate (U2OS; [8]): 0.78; Growth Rate (U2OS; [3]): 0.75; Growth Rate (U2OS; [4]): 0.76; Growth Rate (U2OS; [6]): 0.98
COc1ccc2c(c1OCc1ccccc1)C[C@@H](C(=O)O)N(C(=O)C(c1ccccc1)c1ccccc1)C2 [OLODANRIGAN]	0.74	0.8	–	0.86	–	0.93	0.27	0.24	–	–	–	–	–	0.62	–	–	0.83	–	0.89	0.98	Growth Rate (HEK-293T; [10]): 0.64; Growth Rate (U2OS; [2]): -1
CCNC1(C(N)=O)CCN(c2ncnc3c2nc(-c2ccccc2Cl)n3-c2ccc(Cl)cc2)CC1 [OTENABANT]	–	–	–	–	–	-0.61	0.22	–	-0.34	1	0.38	–	–	–	0.81	0.96	-0.07	0.79	0.93	0.92	Growth Rate (U2OS; [1]): -0.85; Growth Rate (U2OS; [7]): 0.93
CC(C)Oc1ccc(-c2nc(-c3cccc4c3CC[C@@H]4NCCO)no2)cc1C#N [OZANIMOD]	-0.42	-0.32	-0.35	-0.25	-0.29	–	–	0.57	0.12	-0.28	0.03	-0.49	-0.43	-0.7	-0.34	0.42	-0.09	-0.16	-0.05	0.01	Growth Rate (HEK-293T; [10]): -0.68; Growth Rate (U2OS; [3]): 0.37; Growth Rate (U2OS; [4]): 0.41; Growth Rate (U2OS; [6]): 0.38; Growth Rate (U2OS; [7]): 0.04
